Test results as given in ChEMBL document CHEMBL4715696, “In vitro synergistic anticancer activity of the combination of T-type calcium channel blocker and chemotherapeutic agent in A549 cells” (Bioorg Med Chem Lett, 2016).

Legend:
A549 [1] = assay: Induction of cell cycle arrest in human A549 cells assessed as accumulation at sub G1 phase at 5 uM after 24 hrs by flow cytometric analysis (reference value: 7.8%); type: functional
A549 [2] = assay: Induction of cell cycle arrest in human A549 cells assessed as accumulation at G1 phase at 5 uM after 48 hrs by flow cytometric analysis (reference value: 57.8 to 65.5%); type: functional
A549 [3] = assay: Decrease in cell cycle associated protein expression in human A549 cells assessed as fold change in CDK2 expression at 2.5 uM after 48 hrs by Western blot analysis (reference value: 0.48); type: functional
A549 [4] = assay: Decrease in cell cycle associated protein expression in human A549 cells assessed as fold change in CDK2 expression at 10 uM after 12 hrs by Western blot analysis (reference value: 0.79); type: functional
A549 [5] = assay: Decrease in cell cycle associated protein expression in human A549 cells assessed as fold change in CDK4 expression at 10 uM after 6 hrs by Western blot analysis (reference value: 0.87); type: functional
A549 [6] = assay: Decrease in cell cycle associated protein expression in human A549 cells assessed as fold change in CDK4 expression at 10 uM after 36 hrs by Western blot analysis (reference value: 0.87); type: functional
A549 [7] = assay: Decrease in cell cycle associated protein expression in human A549 cells assessed as fold change in CDK6 expression at 2.5 uM after 48 hrs by Western blot analysis (reference value: 1.05); type: functional
A549 [8] = assay: Decrease in cell cycle associated protein expression in human A549 cells assessed as fold change in CDK6 expression at 10 uM after 12 hrs by Western blot analysis (reference value: 0.7); type: functional
A549 [9] = assay: Decrease in cell cycle associated protein expression in human A549 cells assessed as fold change in cyclin D1 expression at 10 uM after 48 hrs by Western blot analysis (reference value: 0.39 to 0.68); type: functional
A549 [10] = assay: Decrease in cell cycle associated protein expression in human A549 cells assessed as fold change in cyclin D1 expression at 10 uM after 24 hrs by Western blot analysis (reference value: 0.68); type: functional
A549 [11] = assay: Decrease in cell cycle associated protein expression in human A549 cells assessed as fold change in cyclin D2 expression at 5 uM after 48 hrs by Western blot analysis (reference value: 0.46); type: functional
A549 [12] = assay: Decrease in cell cycle associated protein expression in human A549 cells assessed as reduction in cyclin D2 expression at 10 uM by Western blot analysis; type: functional, cell-based; conditions: time 6-48 hrs, TDE = time-dependent effect
A549 [13] = assay: Decrease in cell cycle associated protein expression in human A549 cells assessed as reduction in cyclin D3 expression after 48 hrs by Western blot analysis; type: functional, cell-based; conditions: dose 2.5-10 µM
A549 [14] = assay: Decrease in cell cycle associated protein expression in human A549 cells assessed as reduction in cyclin D3 expression at 10 uM by Western blot analysis; type: functional, cell-based; conditions: time 6-48 hrs, TDE = time-dependent effect
A549 [15] = assay: Decrease in cell cycle associated protein expression in human A549 cells assessed as fold change in cyclin D3 expression at 10 uM after 24 hrs by Western blot analysis (reference value: 1.09); type: functional
A549 [16] = assay: Decrease in cell cycle associated protein expression in human A549 cells assessed as fold change in cyclin D3 expression at 10 uM after 36 hrs by Western blot analysis (reference value: 1.09); type: functional
A549 [17] = assay: Decrease in cell cycle associated protein expression in human A549 cells assessed as fold change in cyclin E expression at 10 uM after 48 hrs by Western blot analysis (reference value: 0.37 to 0.55); type: functional
A549 [18] = assay: Decrease in cell cycle associated protein expression in human A549 cells assessed as fold change in cyclin E expression at 10 uM after 6 hrs by Western blot analysis (reference value: 0.55); type: functional
A549 [19] = assay: Decrease in cell cycle associated protein expression in human A549 cells assessed as fold change in cyclin E expression at 10 uM after 12 hrs by Western blot analysis (reference value: 0.55); type: functional
[20] = Upregulation of p27KIP1 protein expression in human A549 cells assessed as fold change in expression at 5 uM after 48 hrs by Western blot analysis (reference value: 0.48); type: functional
[21] = Upregulation of p27KIP1 protein expression in human A549 cells assessed as fold change in expression at 10 uM after 12 hrs by Western blot analysis (reference value: 0.83); type: functional
[22] = Upregulation of p27KIP1 protein expression in human A549 cells assessed as fold change in expression at 10 uM after 36 hrs by Western blot analysis (reference value: 0.83); type: functional
[23] = Metabolic stability in human liver microsomes assessed as parent compound remaining at 1 uM measured for 30 mins; type: ADME, Microsome; conditions: read-out: Stabilty
[24] = Metabolic stability in dog liver microsomes assessed as parent compound remaining at 1 uM measured for 30 mins; type: ADME, Canis lupus familiaris, Microsome; conditions: read-out: Stabilty
[25] = Metabolic stability in rat liver microsomes assessed as parent compound remaining at 1 uM measured for 30 mins; type: ADME, Microsome; conditions: read-out: Stabilty
CYP3A4 = CYP3A4 (Homo sapiens, UniProt P08684); assay: Inhibition of human CYP3A4 assessed as residual activity at 10 uM measured after 15 mins relative to control; type: ADME; conditions: read-out: Activity
Sequence of CYP3A4 (P08684 whole entry): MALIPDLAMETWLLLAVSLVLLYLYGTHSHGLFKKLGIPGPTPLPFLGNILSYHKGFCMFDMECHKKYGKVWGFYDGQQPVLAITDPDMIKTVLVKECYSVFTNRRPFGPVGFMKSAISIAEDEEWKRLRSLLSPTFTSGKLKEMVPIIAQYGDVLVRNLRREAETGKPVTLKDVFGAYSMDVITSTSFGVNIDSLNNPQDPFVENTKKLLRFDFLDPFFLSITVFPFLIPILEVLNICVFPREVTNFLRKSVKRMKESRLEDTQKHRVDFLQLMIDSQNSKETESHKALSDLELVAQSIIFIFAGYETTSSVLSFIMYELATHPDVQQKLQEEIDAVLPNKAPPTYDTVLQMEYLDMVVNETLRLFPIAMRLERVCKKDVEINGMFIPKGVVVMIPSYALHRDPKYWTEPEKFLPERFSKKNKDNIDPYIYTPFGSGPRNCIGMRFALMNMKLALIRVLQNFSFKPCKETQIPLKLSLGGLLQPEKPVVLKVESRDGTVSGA

[26] = Metabolic stability in rat plasma assessed as parent compound remaining at 10 uM measured after 30 mins; type: ADME, cell-free; conditions: read-out: Stabilty
[27] = Protein binding in human plasma at 10 uM after 4 hrs; type: ADME, cell-free; conditions: read-out: PPB (converted)
A549 [28] = assay: Potentiation of cisplatin-induced cell cycle arrest in human A549 cells assessed as accumulation at sub G1 phase at 5 uM in presence of cisplatin after 48 hrs by flow cytometric analysis (reference value: 17%); type: functional
A549 [29] = assay: Potentiation of cisplatin-induced cell cycle arrest in human A549 cells assessed as accumulation at G1 phase at 5 uM in presence of cisplatin after 48 hrs by flow cytometric analysis (reference value: 14.4%); type: functional
A549 [30] = assay: Potentiation of etoposide-induced cell cycle arrest in human A549 cells assessed as accumulation at S phase at 5 uM in presence of etoposide after 48 hrs by flow cytometric analysis (Rvb =12.3%); type: functional
A549 [31] = assay: Potentiation of cisplatin-induced cell cycle arrest in human A549 cells assessed as accumulation at S phase at 2.5 uM in presence of cisplatin after 48 hrs by flow cytometric analysis (Rvb =15.8%); type: functional
A549 [32] = assay: Potentiation of cisplatin-induced cell cycle arrest in human A549 cells assessed as accumulation at S phase at 5 uM in presence of cisplatin after 48 hrs by flow cytometric analysis (Rvb =15.8%); type: functional
A549 [33] = assay: Potentiation of cisplatin-induced cell cycle arrest in human A549 cells assessed as accumulation at G2/M phase at 5 uM in presence of cisplatin after 48 hrs by flow cytometric analysis (Rvb =52.9%); type: functional
A549 [34] = assay: Induction of cell cycle arrest in human A549 cells assessed as decrease in cell accumulation at G2/M phase after 48 hrs by flow cytometric analysis; type: functional, cell-based; conditions: dose 2.5-10 µM
A549 [35] = assay: Induction of apoptosis in human A549 cells assessed as late apoptotic cells at 10 uM incubated for 48 hrs by AnnexinV-FITC/propidium iodide staining based flow cytometry (reference value: 4%); type: functional

CN(C)C(=O)NCCCN(C)C1=Nc2ccccc2C(CC(=O)NCc2ccc(F)cc2)N1c1ccc(C2CCCCC2)cc1 (stereo unspecified)
Activity (A549 [1]): 4.7%
Activity (A549 [2]): 67.7%
fold change (FC) (A549 [3]): 0.47
fold change (FC) (A549 [4]): 0.62
fold change (FC) (A549 [5]): 0.88
fold change (FC) (A549 [6]): 0.79
fold change (FC) (A549 [7]): 0.59
fold change (FC) (A549 [8]): 0.64
fold change (FC) (A549 [9]): 0.55
fold change (FC) (A549 [10]): 0.37
fold change (FC) (A549 [11]): 0.52
Activity (A549 [12]): Tde
Activity (A549 [13]): Dose-dependent effect
Activity (A549 [14]): Tde
fold change (FC) (A549 [15]): 0.51
fold change (FC) (A549 [16]): 0.96
fold change (FC) (A549 [17]): 0.01
fold change (FC) (A549 [18]): 0.53
fold change (FC) (A549 [19]): 0.13
fold change (FC) [20]: 0.76
fold change (FC) [21]: 0.65
fold change (FC) [22]: 1.52
remaining at 0.5 h, 1 µM [23]: 71.2%
remaining at 0.5 h, 1 µM [24]: 92.6%
remaining at 0.5 h, 1 µM [25]: 62.6%
activity at 0.25 h, 10 µM (CYP3A4): 36.9%
remaining at 0.5 h, 10 µM [26]: 49.4%
fraction unbound at 4 h, 10 µM [27]: < 0.01
Activity (A549 [28]): 24.8%
Activity (A549 [29]): 24.5%
Activity (A549 [30]): 7.9%
Activity (A549 [31]): 19.2%
Activity (A549 [32]): 16.8%
Activity (A549 [33]): 33.9%
Activity (A549 [34]): Dose-dependent effect
Activity (A549 [35]): 4.3%
